{"source": "paper PMC7559834", "about": "“Functional and Pharmacological Comparison of Human, Mouse, and Rat Organic Cation Transporter 1 toward Drug and Pesticide Interaction” (International Journal of Molecular Sciences, 2020)", "molecules": {"B1": {"name": "rat Oct1 (rOct1) (Rattus norvegicus) (protein)", "chain": "MPTVDDVLEQVGEFGWFQKQAFLLLCLISASLAPIYVGIVFLGFTPGHYCQNPGVAELSQRCGWSQAEELNYTVPGLGPSDEASFLSQCMRYEVDWNQSTLDCVDPLSSLVANRSQLPLGPCEHGWVYDTPGSSIVTEFNLVCGDAWKVDLFQSCVNLGFFLGSLVVGYIADRFGRKLCLLVTTLVTSVSGVLTAVAPDYTSMLLFRLLQGMVSKGSWVSGYTLITEFVGSGYRRTTAILYQMAFTVGLVGLAGVAYAIPDWRWLQLAVSLPTFLFLLYYWFVPESPRWLLSQKRTTRAVRIMEQIAQKNGKVPPADLKMLCLEEDASEKRSPSFADLFRTPNLRKHTVILMYLWFSCAVLYQGLIMHVGATGANLYLDFFYSSLVEFPAAFIILVTIDRIGRIYPIAASNLVTGAACLLMIFIPHELHWLNVTLACLGRMGATIVLQMVCLVNAELYPTFIRNLGMMVCSALCDLGGIFTPFMVFRLMEVWQALPLILFGVLGLTAGAMTLLLPETKGVALPETIEEAENLGRRKSKAKENTIYLQVQTGKSSST", "notes": "NM_012697.1, stably transfected HEK293 cells"}, "B2": {"name": "mouse Oct1 (mOct1) (Mus musculus) (protein)", "chain": "MPTVDDVLEHVGEFGWFQKQAFLLLCLISASLAPIYVGIVFLGFTPDHHCRSPGVAELSQRCGWSPAEELNYTVPGLGSAGEASFLSQCMKYEVDWNQSTLDCVDPLSSLAANRSHLPLSPCEHGWVYDTPGSSIVTEFNLVCGDAWKVDLFQSCVNLGFFLGSLVVGYIADRFGRKLCLLVTTLVTSLSGVLTAVAPDYTSMLLFRLLQGMVSKGSWVSGYTLITEFVGSGYRRTTAILYQVAFTVGLVGLAGVAYAIPDWRWLQLAVSLPTFLFLLYYWFVPESPRWLLSQKRTTQAVRIMEQIAQKNRKVPPADLKMMCLEEDASERRSPSFADLFRTPSLRKHTLILMYLWFSCAVLYQGLIMHVGATGANLYLDFFYSSLVEFPAAFIILVTIDRIGRIYPIAASNLVAGAACLLMIFIPHELHWLNVTLACLGRMGATIVLQMVCLVNAELYPTFIRNLGMMVCSALCDLGGIFTPFMVFRLMEVWQALPLILFGVLGLSAGAVTLLLPETKGVALPETIEEAENLGRRKSKAKENTIYLQVQTGKSPHT", "notes": "NM_009202.5, stably transfected HEK293 cells"}, "B3": {"name": "human OCT1 (hOCT1) (Homo sapiens) (protein)", "chain": "MPTVDDILEQVGESGWFQKQAFLILCLLSAAFAPICVGIVFLGFTPDHHCQSPGVAELSQRCGWSPAEELNYTVPGLGPAGEAFLGQCRRYEVDWNQSALSCVDPLASLATNRSHLPLGPCQDGWVYDTPGSSIVTEFNLVCADSWKLDLFQSCLNAGFLFGSLGVGYFADRFGRKLCLLGTVLVNAVSGVLMAFSPNYMSMLLFRLLQGLVSKGNWMAGYTLITEFVGSGSRRTVAIMYQMAFTVGLVALTGLAYALPHWRWLQLAVSLPTFLFLLYYWCVPESPRWLLSQKRNTEAIKIMDHIAQKNGKLPPADLKMLSLEEDVTEKLSPSFADLFRTPRLRKRTFILMYLWFTDSVLYQGLILHMGATSGNLYLDFLYSALVEIPGAFIALITIDRVGRIYPMAMSNLLAGAACLVMIFISPDLHWLNIIIMCVGRMGITIAIQMICLVNAELYPTFVRNLGVMVCSSLCDIGGIITPFIVFRLREVWQALPLILFAVLGLLAAGVTLLLPETKGVALPETMKDAENLGRKAKPKENTIYLKVQTSEPSGT", "notes": "NM_003057.2, OCT1*1B allele, stably transfected HEK293 cells"}}, "key": {"[1]": {"test": "inhibition of 3H-MPP uptake in transfected HEK293 cells, % at […]", "assay_type": "cell-based, Mus musculus", "details": "read-out: Inhibitory Effects (%) / hOCT1 / 100 μM"}, "human OCT1 (hOCT1) [2]": {"biological_target": "T1, human OCT1 (hOCT1) (Homo sapiens, UniProt O15245)", "T1 sequence (O15245 1-554)": "B3 chain", "test": "cell-based", "parameters": "gene SLC22A1", "details": "HEK293, read-out: Inhibitory Effects (%) / hOCT1 / 10 μM"}, "hMATE1": {"biological_target": "T2, hMATE1 (Homo sapiens, UniProt Q96FL8)", "T2 construct": "gene SLC47A1; NM_018242.2, stably transfected HEK293 cells", "T2 sequence (Q96FL8 1-570)": "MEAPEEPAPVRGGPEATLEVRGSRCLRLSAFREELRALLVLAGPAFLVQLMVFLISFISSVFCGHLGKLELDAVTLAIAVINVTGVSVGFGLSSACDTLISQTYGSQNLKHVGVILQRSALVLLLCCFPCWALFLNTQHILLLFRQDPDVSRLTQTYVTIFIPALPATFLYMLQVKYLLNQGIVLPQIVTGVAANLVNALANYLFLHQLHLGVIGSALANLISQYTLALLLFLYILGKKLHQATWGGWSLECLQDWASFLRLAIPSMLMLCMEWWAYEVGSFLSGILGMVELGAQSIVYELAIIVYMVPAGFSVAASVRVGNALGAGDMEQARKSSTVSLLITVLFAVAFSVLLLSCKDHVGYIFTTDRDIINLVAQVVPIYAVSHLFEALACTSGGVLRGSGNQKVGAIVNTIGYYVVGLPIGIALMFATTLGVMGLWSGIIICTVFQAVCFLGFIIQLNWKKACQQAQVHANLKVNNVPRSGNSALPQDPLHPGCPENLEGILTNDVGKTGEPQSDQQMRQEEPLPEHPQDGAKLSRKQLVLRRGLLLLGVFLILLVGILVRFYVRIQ", "test": "inhibition of […]-metformin uptake in transfected HEK293 cells, % at […]", "assay_type": "cell-based", "details": "read-out: Inhibitory Effects (%) / hMATE1 / 10 μM"}, "mouse Oct1 (mOct1)": {"biological_target": "T3, mouse Oct1 (mOct1) (Mus musculus, UniProt O08966)", "T3 construct": "gene Slc22a1; NM_009202.5, stably transfected HEK293 cells", "T3 sequence (O08966 1-556)": "B2 chain", "test": "inhibition of 3H-MPP uptake in transfected HEK293 cells", "assay_type": "cell-based"}, "rat Oct1 (rOct1)": {"biological_target": "T4, rat Oct1 (rOct1) (Rattus norvegicus, UniProt Q63089)", "T4 construct": "gene Slc22a1; NM_012697.1, stably transfected HEK293 cells", "T4 sequence (Q63089 1-556)": "B1 chain", "test": "inhibition of 3H-MPP uptake in transfected HEK293 cells", "assay_type": "cell-based"}, "human OCT1 (hOCT1) [3]": {"biological_target": "T1, human OCT1 (hOCT1)", "test": "inhibition of 3H-MPP uptake in transfected HEK293 cells", "assay_type": "cell-based", "parameters": "gene SLC22A1; NM_003057.2, OCT1*1B allele, stably transfected HEK293 cells"}, "[4]": {"substrate": "C[n+]1ccc(-c2ccccc2)cc1", "test": "concentration-dependent 3H-MPP uptake, Km", "assay_type": "cell-based, Rattus norvegicus"}, "[5]": {"substrate": "C[n+]1ccc(-c2ccccc2)cc1", "test": "concentration-dependent 3H-MPP uptake, Km", "assay_type": "cell-based, Mus musculus"}, "[6]": {"substrate": "C[n+]1ccc(-c2ccccc2)cc1", "test": "concentration-dependent 3H-MPP uptake, Km", "assay_type": "cell-based, Homo sapiens"}}, "note": "Like-named read-outs stand apart in the source and are kept apart here."}
{"molecule": "C=CCOC(Cn1ccnc1)c1ccc(Cl)cc1Cl", "note": "(stereo not shown) [Imazalil]", "values": [{"measurement": "inhibition at 10 µM", "setting": "[1]", "value": 84, "unit": "%"}]}
{"molecule": "Clc1cccc(Cl)c1N=C1NCCN1", "note": "[Clonidine]", "values": [{"measurement": "inhibition at 10 µM", "setting": "human OCT1 (hOCT1) [2]", "value": 73, "unit": "%"}]}
{"molecule": "CC(=O)N1CCN(c2ccc(OCC3COC(Cn4ccnc4)(c4ccc(Cl)cc4Cl)O3)cc2)CC1", "note": "(stereo not shown) [Ketoconazol]", "values": [{"measurement": "inhibition at 10 µM", "setting": "hMATE1", "value": 87, "unit": "%"}]}
{"molecule": "CCN1/C(=C/c2ccc3ccccc3[n+]2CC)C=Cc2ccccc21", "note": "[decynium22]", "values": [{"measurement": "IC50", "setting": "mouse Oct1 (mOct1)", "value": "5.3 ± 0.4", "unit": "µM"}, {"measurement": "inhibition at 10 µM", "setting": "hMATE1", "value": 76, "unit": "%"}, {"measurement": "IC50", "setting": "rat Oct1 (rOct1)", "value": "10.5 ± 0.4", "unit": "µM"}, {"measurement": "IC50", "setting": "human OCT1 (hOCT1) [3]", "value": "12.1 ± 0.8", "unit": "µM"}]}
{"molecule": "B1", "values": [{"measurement": "Km", "setting": "[4]", "value": "57 ± 5", "unit": "µM"}]}
{"molecule": "B2", "values": [{"measurement": "Km", "setting": "[5]", "value": "36 ± 13", "unit": "µM"}]}
{"molecule": "B3", "values": [{"measurement": "Km", "setting": "[6]", "value": "73 ± 7", "unit": "µM"}]}
